Results reported in patent publication US5328913A, “Minoxidil analogs as inhibitors of cell proliferation and lysyl hydroxylase” (priority 1992, dated 1994).
Counter-ions that a name gives are not always drawn.

How the values were obtained:
lysyl hydroxylase [1] = assay: Lysyl hydroxylase activity in extracts of treated human skin fibroblasts (Example 1, tritium-release assay); format: cell-based; conditions: cultured fibroblasts; for effect on lysyl hydroxylase activity (in words): 72 h, Example 1
Procedure: (§1) Cultures of human skin fibroblasts grown to confluence were incubated for 72 h in medium supplemented with 1% ethanol containing various concentrations of minoxidil or deoxyminoxidil as indicated. Cells were then harvested, and the enzyme activities in extracts of these cells were measured by tritium-release assays (Murad and Pinnell, J. Biol. Chem. 262:11,973 (1987)). The results are expressed as percentages of zero-concentration values.
as §1, with “with 1% acetone containing various concentrations of minoxidil sulfate,” for “deoxyminoxidil”, “tritium release” for “tritium-release”
(§2) Skin fibroblast cultures derived from an apparently normal child (GM05659) were obtained from the Institute for Medical Research, Camden, N.J. The cells were subcultured by trypsinization and used before 25 population doublings. Typically, 4×10^5 cells were seeded onto 100-mm (diameter) plastic petri dishes and allowed to grow in 10 ml of Dulbecco's modified Eagle's minimum essential medium containing 5.6 mM glucose, buffered in pH 7.4 with 24 mM sodium biocarbonate/25 mM Hepes and supplemented with 20% (v/v) calf serum which had been inactivated for 30 min at 56° C. The cells were incubated at 37° C. in a humidified atmosphere of 5% CO2 plus 95% air.
(§3) After a week, the medium was replaced with medium supplemented with 0.5% heat-inactivated diaylzed calf serum, and the incubation was continued for 72 h in the presence of minoxidil or one of its structural analogs. The compounds were dissolved in 95% ethanol, except minoxidil sulfate which was dissolved in acetone; the final solvent concentration was 1% (v/v). During the last 3 h of incubation, cells received 100 μM Na L-ascorbate to ensure complete hydroxylation of the polypeptide precursors of precollagen (Murad et al, J. Invest. Dermatol. 75:404 (1980)).
The medium was then removed and the cells were washed twice with a solution containing 0.14 M NaCl, 5 mM KCl, 0.3 mM Na2 PO4, and 0.4 mM KH2 PO4, adjusted to pH 7.4. The cells were detached from the plates with a solution containing 0.05% trypsin, 0.54 mM EDTA, 5.5mM glucose, 6.90mM NaHCO3, […], and 5 mM KCl. The trypsinization was terminated with 2 vol of 20% serum-supplemented medium, and the cell number in an aliquot of the suspension was determined using a Coulter counter.
The detached cells were collected by centrifugation at 500g for 6 min at 4° C. washed twice by suspending in phosphate-buffered NaCl/KCl as above, and then centrifuged. The cell pellet was suspended in a medium (1 ml/5×10^6 cells) containing 0.2 M NaCl, 0.1 M glycine, 50 μM dithiothreitol, 20 mM Tris-HCl, buffer (pH 7.5), 0.1% Triton X-100, and 0.01% soybean trypsin inhibitor. The suspension was sonicated for 30 s using a Branson sonifier cell disrupter. The lysate was centrifuged at 27,000g for 1 h at 4° C., and the resulting supernatant was used for prolyl and lysyl hydroxylase assays (Murad and Pinnell, J. Biol. Chem. 262:11, 973 (1987)). The enzyme activities are based on a unit of soluble cell protein.
(§4) The protein content of cell extracts was determined by a dye-binding technique using Bio-Rad reagent and protein standard (Bradford, Anal. Biochem. 72:248 (1976)).
Note: Cultures of human skin fibroblasts grown to confluence were
incubated for 72 h in medium supplemented with 1% ethanol containing 1 mM
of the indicated compounds. Cells were then harvested, and the enzyme
activity in extracts of these cells was measured by a tritiumrelease
incubated for 72 h in medium supplemented with 1% ethanol containing 1 nM

prolyl hydroxylase = assay: Prolyl hydroxylase activity in extracts of treated human skin fibroblasts (Example 1, tritium-release assay); format: cell-based; conditions: cultured fibroblasts; for effect on prolyl hydroxylase activity (in words): 72 h, Example 1
Procedure: as §1
as §1, with “with 1% acetone containing various concentrations of minoxidil sulfate,” for “deoxyminoxidil”, “tritium release” for “tritium-release”
as §2, §3
The medium was then removed and the cells were washed twice with a solution containing 0.14 M NaCl, 5 mM KCl, 0.3 mM Na2 PO4, and 0.4 mM KH2 PO4, adjusted to pH 7.4. […] The trypsinization was terminated with 2 vol of 20% serum-supplemented medium, and the cell number in an aliquot of the suspension was determined using a Coulter counter. […]
as §4

lysyl hydroxylase [2] = biological target: T1, lysyl hydroxylase (Homo sapiens, UniProt Q02809); assay: Direct inhibition of enzyme activity in vitro / mixing experiments with cell extracts; format: biochemical
T1 sequence (Q02809 19-727): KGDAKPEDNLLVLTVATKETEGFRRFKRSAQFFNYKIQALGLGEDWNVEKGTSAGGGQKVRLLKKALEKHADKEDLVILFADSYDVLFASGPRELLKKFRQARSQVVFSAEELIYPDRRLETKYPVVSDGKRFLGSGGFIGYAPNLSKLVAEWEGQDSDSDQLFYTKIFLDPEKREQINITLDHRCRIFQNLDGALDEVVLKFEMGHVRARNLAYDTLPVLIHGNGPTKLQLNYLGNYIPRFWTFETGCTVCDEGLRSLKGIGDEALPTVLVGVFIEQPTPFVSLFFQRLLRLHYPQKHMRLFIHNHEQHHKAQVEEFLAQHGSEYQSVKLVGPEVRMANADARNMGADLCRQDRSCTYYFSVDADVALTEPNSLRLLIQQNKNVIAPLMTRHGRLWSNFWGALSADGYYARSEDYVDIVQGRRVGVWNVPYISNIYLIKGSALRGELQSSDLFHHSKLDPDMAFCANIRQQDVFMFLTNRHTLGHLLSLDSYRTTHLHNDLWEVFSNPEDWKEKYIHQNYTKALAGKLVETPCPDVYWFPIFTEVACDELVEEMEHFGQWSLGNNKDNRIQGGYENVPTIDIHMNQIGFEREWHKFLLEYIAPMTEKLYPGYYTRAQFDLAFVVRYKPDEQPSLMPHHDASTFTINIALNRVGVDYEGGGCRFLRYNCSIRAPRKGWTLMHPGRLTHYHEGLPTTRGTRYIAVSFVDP

[3] = Solubility with acetone as solvent; format: physicochemical; conditions: acetone as the solvent; concentrations higher than 500 μM could not be tested
[4] = tested on: enzyme activity (lysyl hydroxylase, prolyl hydroxylase); assay: Direct inhibition of enzyme activity, mixing experiments with extracts of treated cells and controls; format: biochemical, human
Procedure: The functional significance of the nitroxide oxygen in minoxidil was evaluated with a deoxy analog. Shown in FIG. 2 is a comparison of the effects of minoxidil and deoxyminoxidil on the activities of lysyl hydroxylase and the control enzyme prolyl hydroxylase in cultured fibroblasts.

Structure (SMILES) | effect on lysyl hydroxylase activity (in words) (lysyl hydroxylase [1]) | effect on prolyl hydroxylase activity (in words) (prolyl hydroxylase) | inhibition of lysyl hydroxylase activity in vitro (in words) (lysyl hydroxylase [2]) | solubility (in words) [3] | IC50 (lysyl hydroxylase [1]; 72 h (FIG. 2), read-out: concentration required for 50% inhibition (lysyl hydroxylase)) [µM] | IC50 (prolyl hydroxylase; 72 h (FIG. 2), read-out: concentration required for 50% effect (prolyl hydroxylase)) [µM] | direct inhibition of enzyme activity (in words) [4]
Nc1cc(N2CCCCC2)nc(N)[n+]1OS(=O)(=O)[O-] [Minoxidil sulfate] | suppressed lysyl hydroxylase activity in a manner almost identical to that observed with minoxidil | no change in prolyl hydroxylase activity | failed to inhibit lysyl hydroxylase activity in vitro | limited solubility |  |  | 
Nc1cc(N2CCCCC2)nc(N)n1 [Deoxyminoxidil] | suppressed lysyl hydroxylase activity in a manner remarkably similar to that observed with minoxidil | suppressed prolyl hydroxylase activity in a dose-related manner |  |  | 118 | 260 | no evidence for direct inhibition of enzyme activity
